Literature values as cited in paper PMC2988205 (Medicinal Chemistry Research, 2009).
pEC50: −log10 of the molar value.

Test system: β3-AR
Details: read-out: β3 EC50; β3-AR partial agonist; ref Naylor et al., 1998

C[C@H](Cc1ccc(OCC(=O)O)cc1)NC[C@H](O)c1cccc(Cl)c1 [BRL-37344]
pEC50: 6.35
